Source: patent US20150322033A1, “ANTIBACTERIAL AGENT” (priority 2012, published 2015)
Converted amounts (≈) assume the structure as drawn. “And” between values parts separate entries of the source, which are not always exact repeats. Equal entries are not always repeated. Where two headings read alike, the source gives them in different places.

How the values were obtained:
S. aureus Mu50 NR1-1 = experiment: MIC by broth microdilution, S. aureus Mu50 NR1-1; format: cell-based; settings: Staphylococcus aureus, MU50NR11; Example 3, Table 13; read-out: MIC (mg/L) Mu50 NR1-1 (S80F, w)
Protocol: MIC values of the flavones and quinolone for the strains were measured in the same manners as those of Example 1, except that S. aureus Mu50 NR-1 was also used as Staphylococcus aureus in addition to S. aureus FDA209P and S. aureus Mu50, cell suspensions of the strains were prepared.
S. aureus Mu50 NR1-1 mentioned in Table 13 is a strain selected stepwise from the clinically isolated S. aureus Mu50 strain with deoxynybomycin, and it has a topoisomerase IV encoded by parC in which a […] (see, Hiramatsu K. et al., J. Antimicrob. Agents, 2012, June; 39 (6), 478-85).
In Table 13, the descriptions in the parentheses after the strains indicate the mutated amino acid residue and its position, as represented by (the mutation of topoisomerase IV resulting from the mutation of parCand the mutation of DNA gyrase resulting from the mutation of gyrA). The character “w” means wild-type, representing without mutation.

GyrA(S84L) + GyrB(wt) = biological target: T1, GyrA(S84L) + GyrB(wt) (Staphylococcus aureus, UniProt P20831, S84L); experiment: DNA cleavage assay with mutant GyrA(S84L) and GyrB(wt); format: biochemical
T1 construct: made in house; host or cells: E. coli BL21(DE3)
Excerpt: E. coliBL21(DE3) (produced by Invitrogen) was transformed with pMAL-c2-gyrA mentioned above, with pMAL-c2-gyrB mentioned above, or with pMAL-c2-SAGAmut84 containing a mutant gyrA encoding the amino acid sequence of GyrA(wt) in which serine residue at the 84th position from the amino terminus is substituted with a leucine residue (see, Hiramatsu K., Igarashi M., Morimoto Y, Baba T., Umekita M., Akamatsu Y., Int. J. Antimicrob. Agents, 2012 June; 39(6), 478-85). To the culture medium of the resulting transformed Escherichia coli, 1 mM […] (produced by Wako Pure Chemical Industries) was added to induce expression of maltose-binding GyrA(wt), maltose-binding GyrB(wt), or maltose-binding mutant GyrA(S84L), and the bacterium was cultured overnight at 25° C. After completion of the culture, the cells were collected, and suspended in a buffer (20 mM Tris-HCl (pH 8.0), 200 mM sodium chloride, 1 mM ethylenediaminetetraacetic acid (EDTA), 1 mM dithiothreitol (DTT)), a protein extracting reagent (10× BugBuster (registered trademark), produced by Novagen) in a volume of 1/10 of the volume of the buffer, and 2.5 μL/10 mL of the buffer of Benzonase (registered trademark) nuclease (produced by Novagen) were added, the mixture was left standing at 25° C. for 30 minutes, and the cells were disrupted and lysed to obtain a disrupted cell suspension containing the maltose-binding GyrA(wt), maltose-binding GyrB(wt), or maltose-binding mutant GyrA(S84L).
Then, each disrupted cell suspension mentioned above was added to a column filled with an amylose resin covalently bound with maltose (produced by Novagen). A buffer (20 mM Tris-HCl (pH 8.0), 200 mM sodium chloride, 1 mM EDTA) containing 10 mM maltose was added to the column to elute the maltose-binding GyrA(wt), maltose-binding GyrB(wt), and maltose-binding mutant GyrA(S84L).
To each eluate, 4 units/1 mL of the eluate of protease (Factor Xa, produced by Amersham) was added, and the mixture was left standing at 25° C. for 3 hours and 30 minutes to cleave the maltose-binding proteins, GyrA(wt), GyrB(wt), and mutant GyrA(S84L) from the maltose-binding GyrA(wt), maltose-binding GyrB(wt), and maltose-binding mutant GyrA(S84L).
Then, GyrA(wt), GyrB(wt), and mutant GyrA(S84L) were concentrated by using an ultrafiltration unit (YM-50 Filter Unit, produced by Millipore).
The concentrated GyrA(wt), GyrB(wt), and mutant GyrA(S84L) were each suspended in a buffer (35 mM Tris-HCl (pH 7.5), 24 mM potassium chloride, 6 mM magnesium chloride, 1.8 mM spermidine, 0.36 mg/mL bovine serum albumin, 5 mM DTT, 50 volume % glycerol) at a concentration of 1 μg/μL for GyrA(wt), 2 μg/μL for GyrB(wt), or 1 μg/μL for mutant GyrA(S84L).
An assay was performed in the same manner as that of the cleavage of the plasmid DNA with GyrA(wt) and GyrB(wt) mentioned above, provided that 0.15 μL of an enzyme solution of mutant GyrA(S84L) and 0.2 μL of the enzyme solution of GyrB(wt) were added instead of […] of the enzyme solution of GyrA(wt) and 0.2 μL of the enzyme solution of GyrB(wt). In FIGS. 3 and 4, the symbols “S”, “L”, and “N” have the same meanings as those explained for FIGS. 1 and 2.
IC50 value of levofloxacin or apigenin was also calculated from the visualized images shown in FIGS. 3 and 4 in the same manner as that used for the calculation using the results shown in FIGS. 1 and 2.
The DNA cleavage assay was performed with M-246 in the same manner as that used in Example 4.

S. aureus MS5935-1 = experiment: MIC for S. aureus MS5935-1; format: cell-based; settings: Staphylococcus aureus, MS59351
Protocol: The levofloxacin-susceptible Staphylococcus aureus strain MS5935-1 (strain in which the 80th serine residue from the amino terminus of the wild-type topoisomerase IV encoded by parC is mutated with phenylalanine residue, see, Hiramatsu K., Igarashi M., Morimoto Y, Baba T., Umekita M., Akamatsu Y., Int. J. Antimicrob. Agents, 2012 June; 39(6), 478-85) was cultured overnight at 37° C. with shaking in 4 mL of TBS (produced by Dickinson). After completion of the culture, the cells were suspended in fresh TBS, and the cell suspension was adjusted to have an absorbance of 0.3 measured at 578 nm. Then, the cell suspension was diluted 10,000 times with TBS. This diluted cell suspension was inoculated (0.1 mL each) into ten test tubes containing 4 mL each of TBS, and preculture was carried out overnight at 37° C.

C[C@H]1COc2c(N3CCN(C)CC3)c(F)cc3c(=O)c(C(=O)O)cn1c23 [Levofloxacin, levofloxacin, reference compound]
MIC (S. aureus Mu50 NR1-1): 1 mg/L (≈ 2.77 µM)
IC50 (GyrA(S84L) + GyrB(wt); Example 4, Table 15, from ratio of cleaved DNA, read-out: IC50 (μg/mL) GyrA(S84L) + GyrB(wt)): > 88.6 µM
MIC (S. aureus MS5935-1): 0.5 µg/mL (≈ 1.38 µM)

O=c1cc(-c2ccc(O)cc2)oc2cc(O)cc(O)c12 [No. 7, 4′,5,7-Trihydroxyflavone]
MIC (S. aureus Mu50 NR1-1): > 128 mg/L
inhibitory activity against the mutant DNA gyrase (GyrA(S84L) + GyrB(wt); FIG. 3 and 4): concentration-dependent inhibitory activity
IC50 (GyrA(S84L) + GyrB(wt); IC50 (μg/mL) GyrA(S84L) + GyrB(wt), Example 4, Table 15, from ratio of cleaved DNA): ~29.6 µM and 29.6 µM
IC50 (GyrA(S84L) + GyrB(wt); IC50 mutant GyrA(S84L) and GyrB(wt), value in μM): ~29.6 µM
MIC (S. aureus MS5935-1): > 128 µg/mL
